Measurements from ChEMBL document CHEMBL4020759, “Sulfoximines as ATR inhibitors: Analogs of VE-821” (2017).
Active and inactive are the calls of the source. The rule behind the calls is not given here.

What was measured:
[1] = target: Serine-protein kinase ATM (Homo sapiens) (UniProt Q13315); test: Inhibition of ATM in human U2OS cells assessed as reduction in etoposide-induced Chk-2 phosphorylation at Thr68 residue at 10 uM preincubated for 1 hr followed by etoposide challenge measured after 20 mins by Western blot analysis; assay type: cell-based
[2] = target: Serine/threonine-protein kinase ATR (Homo sapiens) (UniProt Q13535); test: Inhibition of ATR in human U2OS cells assessed as reduction in etoposide-induced Chk-1 phosphorylation at Ser345 residue at 10 uM preincubated for 1 hr followed by etoposide challenge measured after 20 mins by Western blot analysis; assay type: cell-based
Serine/threonine-protein kinase ATR (Homo sapiens), sequence (Q13535 whole entry, looked up): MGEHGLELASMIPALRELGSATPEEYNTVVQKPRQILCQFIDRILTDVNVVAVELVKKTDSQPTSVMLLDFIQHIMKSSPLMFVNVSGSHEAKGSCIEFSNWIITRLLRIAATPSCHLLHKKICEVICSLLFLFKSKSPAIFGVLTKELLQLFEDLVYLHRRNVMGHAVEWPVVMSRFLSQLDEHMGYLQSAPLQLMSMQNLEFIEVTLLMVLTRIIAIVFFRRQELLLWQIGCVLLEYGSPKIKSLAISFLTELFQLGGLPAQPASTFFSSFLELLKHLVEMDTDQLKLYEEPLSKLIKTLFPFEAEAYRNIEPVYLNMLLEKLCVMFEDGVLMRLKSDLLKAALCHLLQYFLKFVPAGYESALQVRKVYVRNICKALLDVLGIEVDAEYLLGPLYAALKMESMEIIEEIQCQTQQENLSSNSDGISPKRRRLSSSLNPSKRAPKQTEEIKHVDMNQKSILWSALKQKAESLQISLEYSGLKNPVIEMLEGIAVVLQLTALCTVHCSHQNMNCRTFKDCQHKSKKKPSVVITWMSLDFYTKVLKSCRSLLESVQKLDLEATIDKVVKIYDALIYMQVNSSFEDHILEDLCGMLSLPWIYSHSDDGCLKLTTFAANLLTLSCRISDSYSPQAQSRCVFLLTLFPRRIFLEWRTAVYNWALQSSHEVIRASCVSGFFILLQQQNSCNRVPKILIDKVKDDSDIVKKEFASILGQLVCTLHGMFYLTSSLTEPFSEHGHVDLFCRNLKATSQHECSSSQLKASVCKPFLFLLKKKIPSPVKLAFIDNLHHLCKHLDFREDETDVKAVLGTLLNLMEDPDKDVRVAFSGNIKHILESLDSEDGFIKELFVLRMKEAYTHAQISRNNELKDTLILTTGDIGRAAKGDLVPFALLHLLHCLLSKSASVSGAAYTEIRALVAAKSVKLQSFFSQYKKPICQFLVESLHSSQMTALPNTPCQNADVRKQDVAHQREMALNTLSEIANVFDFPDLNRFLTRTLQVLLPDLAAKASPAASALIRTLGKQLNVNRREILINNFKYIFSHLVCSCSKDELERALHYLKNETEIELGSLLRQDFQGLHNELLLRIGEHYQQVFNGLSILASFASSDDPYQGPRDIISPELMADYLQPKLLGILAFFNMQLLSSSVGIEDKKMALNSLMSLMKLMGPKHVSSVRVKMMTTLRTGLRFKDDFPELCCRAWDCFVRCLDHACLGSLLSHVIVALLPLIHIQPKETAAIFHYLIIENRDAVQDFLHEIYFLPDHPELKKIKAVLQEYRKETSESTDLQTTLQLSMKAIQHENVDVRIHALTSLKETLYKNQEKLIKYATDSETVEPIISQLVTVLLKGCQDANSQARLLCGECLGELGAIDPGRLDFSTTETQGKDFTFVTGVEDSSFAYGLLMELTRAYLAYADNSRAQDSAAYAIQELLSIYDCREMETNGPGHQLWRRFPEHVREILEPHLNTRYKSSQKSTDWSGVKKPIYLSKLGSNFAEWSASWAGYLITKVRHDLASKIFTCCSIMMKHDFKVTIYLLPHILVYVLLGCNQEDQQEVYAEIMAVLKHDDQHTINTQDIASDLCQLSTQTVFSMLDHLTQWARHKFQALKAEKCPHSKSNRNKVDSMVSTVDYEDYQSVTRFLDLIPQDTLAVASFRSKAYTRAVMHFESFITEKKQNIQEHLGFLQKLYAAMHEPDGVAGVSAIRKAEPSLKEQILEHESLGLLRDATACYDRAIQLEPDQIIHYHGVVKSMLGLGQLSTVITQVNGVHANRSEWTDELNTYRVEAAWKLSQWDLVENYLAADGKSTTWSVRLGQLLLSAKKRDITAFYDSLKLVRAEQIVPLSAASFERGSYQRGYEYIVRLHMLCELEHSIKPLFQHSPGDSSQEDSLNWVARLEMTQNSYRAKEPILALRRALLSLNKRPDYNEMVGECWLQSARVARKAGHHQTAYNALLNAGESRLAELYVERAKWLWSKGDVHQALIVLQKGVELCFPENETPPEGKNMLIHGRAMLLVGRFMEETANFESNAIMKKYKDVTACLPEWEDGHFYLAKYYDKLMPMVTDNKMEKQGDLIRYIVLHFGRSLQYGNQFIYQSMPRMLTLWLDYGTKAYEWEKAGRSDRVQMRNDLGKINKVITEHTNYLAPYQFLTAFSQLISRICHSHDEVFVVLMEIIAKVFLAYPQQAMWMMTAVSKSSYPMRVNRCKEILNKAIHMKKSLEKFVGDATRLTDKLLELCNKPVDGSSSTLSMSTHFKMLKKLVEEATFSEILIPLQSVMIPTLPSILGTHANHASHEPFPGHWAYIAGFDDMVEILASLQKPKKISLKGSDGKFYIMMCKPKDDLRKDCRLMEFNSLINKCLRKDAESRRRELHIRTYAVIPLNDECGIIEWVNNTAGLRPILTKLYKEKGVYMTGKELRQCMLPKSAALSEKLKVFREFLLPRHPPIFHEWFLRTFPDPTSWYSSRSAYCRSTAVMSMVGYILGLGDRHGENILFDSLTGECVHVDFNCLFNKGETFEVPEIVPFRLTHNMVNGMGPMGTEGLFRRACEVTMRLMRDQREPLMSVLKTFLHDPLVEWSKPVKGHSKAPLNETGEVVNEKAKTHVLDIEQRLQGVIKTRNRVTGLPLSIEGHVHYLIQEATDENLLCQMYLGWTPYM

[3] = target: Serine/threonine-protein kinase ATR (Homo sapiens) (UniProt Q13535); test: Inhibition of ATR in human U2OS cells assessed as reduction in hydroxyurea-induced Chk-1 phosphorylation at Ser345 residue at 10 uM preincubated for 1 hr followed by hydroxyurea challenge measured after 1 hr by Western blot analysis; assay type: cell-based
[4] = target: Serine-protein kinase ATM (Homo sapiens) (UniProt Q13315); test: Inhibition of ATM in human U2OS cells assessed as reduction in hydroxyurea-induced Chk-2 phosphorylation at Thr68 residue at 10 uM preincubated for 1 hr followed by hydroxyurea challenge measured after 1 hr by Western blot analysis; assay type: cell-based
[5] = target: Serine-protein kinase ATM (Homo sapiens) (UniProt Q13315); test: Inhibition of ATM in human U2OS cells assessed as reduction in hydroxyurea-induced H2AX phosphorylation at Ser139 residue at 3 to 10 uM preincubated for 1 hr followed by hydroxyurea challenge measured after 2 hrs by Western blot analysis; assay type: cell-based
[6] = target: Serine/threonine-protein kinase ATR (Homo sapiens) (UniProt Q13535); test: Inhibition of ATR in human Ramos cells assessed as reduction in […] at 10 uM after 48 hrs by Western blot analysis; assay type: cell-based
Ramos = test: Induction of apoptosis in human Ramos cells assessed as increase PARP-1 cleavage at 10 uM after 48 hrs by Western blot analysis; assay type: functional, cell-based
[7] = target: Serine/threonine-protein kinase ATR (Homo sapiens) (UniProt Q13535); test: Inhibition of ATR in human U2OS cells assessed as reduction in hydroxyurea-induced Chk-1 phosphorylation at Ser345 residue by measuring ratio of GAPDH level to phosphorylated Chk-1 level at 3 uM preincubated for 1 hr followed by hydroxyurea challenge measured after 2 hrs by Western blot analysis; assay type: cell-based
[8] = target: Serine/threonine-protein kinase ATR (Homo sapiens) (UniProt Q13535); test: Inhibition of ATR in human U2OS cells assessed as reduction in hydroxyurea-induced Chk-1 phosphorylation at Ser345 residue by measuring ratio of GAPDH level to phosphorylated Chk-1 level at 10 uM preincubated for 1 hr followed by hydroxyurea challenge measured after 2 hrs by Western blot analysis; assay type: cell-based
[9] = target: Serine/threonine-protein kinase ATR (Homo sapiens) (UniProt Q13535); test: Inhibition of ATR in human U2OS cells assessed as reduction in hydroxyurea-induced Chk-1 phosphorylation at Ser345 residue preincubated for 1 hr followed by hydroxyurea challenge measured after 2 hrs by Western blot analysis; assay type: cell-based
[10] = target: Serine/threonine-protein kinase ATR (Homo sapiens) (UniProt Q13535); test: Inhibition of ATR in human U2OS cells assessed as reduction in hydroxyurea-induced H2AX phosphorylation at Ser139 residue at 3 to 10 uM preincubated for 1 hr followed by hydroxyurea challenge measured after 2 hrs by Western blot analysis; assay type: cell-based

For `CN=S(C)(=O)c1ccc(-c2cnc(N)c(C(=O)Nc3ccccc3)n2)cc1` (centres undefined), the inhibition [1] was “inactive”, the inhibition [2] was “Active” and the inhibition [3] was “Active”. For the same compound, the inhibition [4] was “inactive”, the inhibition [5] was “inactive” and the inhibition [6] was “Active”. The Activity (Ramos) was “Active”, the Ratio [7] was 46.1 and the Ratio [8] was 36.4. For the same compound, the inhibition [9] was “Dose-dependent effect” and the inhibition [10] was “Dose-dependent effect”.

`CS(=N)(=O)c1ccc(-c2cnc(N)c(C(=O)Nc3ccccc3)n2)cc1` (centres undefined) was tested, and the inhibition [1] was “inactive”, the inhibition [2] was “Active” and the inhibition [3] was “Active”. The inhibition [4] was “inactive”, the inhibition [5] was “inactive” and the inhibition [6] was “Active”. For the same compound, the Activity (Ramos) was “Active”, the Ratio [7] was 28.3 and the Ratio [8] was 21.1. The inhibition [9] was “Dose-dependent effect” and the inhibition [10] was “Dose-dependent effect”.

`CS(=O)(=O)c1ccc(-c2cnc(N)c(C(=O)Nc3ccccc3)n2)cc1` was tested, and the inhibition [1] was “inactive”, the inhibition [2] was “Active” and the inhibition [5] was “inactive”. The inhibition [6] was “Active”, the Activity (Ramos) was “Active” and the Ratio [7] was 13. The Ratio [8] was 16.3.
